System: 242566-281-R-J2-PDC complex spheroid viability
Test: Anticancer human tumor 242566-281-R-J2-PDC patient-derived pancreatic carcinoma cell line growth inhibition [RAS]
Conditions: for viability, T/C: stronger effect = lower value
Summary of the method: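 Agents were tested in combination matrices in half-log decrements from a top concentration at or near clinical Cmax (10 microM if undetermined). Targets were multi-cell spheroids of tumour lines plus HUVEC and MSC stromal cells.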

[1] = curve of first compound, second compound 0.0316 µM
[2] = curve of first compound, second compound 0.1 µM
[3] = curve of first compound, second compound 0.316 µM
[4] = curve of first compound, second compound 1 µM
[5] = second compound 0.0316 µM, first compound 0.0316 µM
[6] = second compound 0.0316 µM, first compound 0.1 µM
[7] = second compound 0.0316 µM, first compound 0.316 µM
[8] = second compound 0.0316 µM, first compound 1 µM
[9] = second compound 0.0316 µM, first compound 3.16 µM
[10] = second compound 0.0316 µM, first compound 10 µM
[11] = second compound 0.1 µM, first compound 0.0316 µM
[12] = second compound 0.1 µM, first compound 0.1 µM
[13] = second compound 0.1 µM, first compound 0.316 µM
[14] = second compound 0.1 µM, first compound 1 µM
[15] = second compound 0.1 µM, first compound 3.16 µM
[16] = second compound 0.1 µM, first compound 10 µM
[17] = second compound 0.316 µM, first compound 0.0316 µM
[18] = second compound 0.316 µM, first compound 0.1 µM
[19] = second compound 0.316 µM, first compound 0.316 µM
[20] = second compound 0.316 µM, first compound 1 µM
[21] = second compound 0.316 µM, first compound 3.16 µM
[22] = second compound 0.316 µM, first compound 10 µM
[23] = second compound 1 µM, first compound 0.0316 µM
[24] = second compound 1 µM, first compound 0.1 µM
[25] = second compound 1 µM, first compound 0.316 µM
[26] = second compound 1 µM, first compound 1 µM
[27] = second compound 1 µM, first compound 3.16 µM
[28] = second compound 1 µM, first compound 10 µM
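Further: spheroids exposed to compound for 7 days before readout.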
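Wherever viability, T/C is given: 100% = DMSO vehicle control wells.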

CC(Nc1ccc2c(c1)OCCn1cc(N3C(=O)OCC3C(F)F)nc1-2)C(N)=O (configuration not stated) + C=CC(=O)N1CCN(c2nc(OCC3CCCN3C)nc3c(F)c(-c4nc(N)cc(C)c4C(F)(F)F)c(Cl)cc23)C(C)C1
IC50 (curve of first compound, second compound 0.00316 µM): 753 nM
IC50 (curve of first compound, second compound 0.01 µM): 926 nM
IC50 [1]: 1710 nM
IC50 [2]: 627 nM
IC50 [3]: 1430 nM
IC50 [4]: 1290 nM
viability, T/C (second compound 0.00316 µM, first compound 0.0316 µM): 86.4%
viability, T/C (second compound 0.00316 µM, first compound 0.1 µM): 113%
viability, T/C (second compound 0.00316 µM, first compound 0.316 µM): 76.7%
viability, T/C (second compound 0.00316 µM, first compound 1 µM): 42.7%
viability, T/C (second compound 0.00316 µM, first compound 3.16 µM): 34.7%
viability, T/C (second compound 0.00316 µM, first compound 10 µM): 27.4%
viability, T/C (second compound 0.01 µM, first compound 0.0316 µM): 105%
viability, T/C (second compound 0.01 µM, first compound 0.1 µM): 115%
viability, T/C (second compound 0.01 µM, first compound 0.316 µM): 80.3%
viability, T/C (second compound 0.01 µM, first compound 1 µM): 48.3%
viability, T/C (second compound 0.01 µM, first compound 3.16 µM): 37.1%
viability, T/C (second compound 0.01 µM, first compound 10 µM): 24.4%
viability, T/C [5]: 96.1%
viability, T/C [6]: 102%
viability, T/C [7]: 76.1%
viability, T/C [8]: 63.4%
viability, T/C [9]: 36.6%
viability, T/C [10]: 30.9%
viability, T/C [11]: 103%
viability, T/C [12]: 105%
viability, T/C [13]: 66%
viability, T/C [14]: 41.7%
viability, T/C [15]: 37.2%
viability, T/C [16]: 27.8%
viability, T/C [17]: 89.8%
viability, T/C [18]: 91.2%
viability, T/C [19]: 72%
viability, T/C [20]: 55.3%
viability, T/C [21]: 40%
viability, T/C [22]: 30.6%
viability, T/C [23]: 104%
viability, T/C [24]: 117%
viability, T/C [25]: 85.9%
viability, T/C [26]: 53.4%
viability, T/C [27]: 47%
viability, T/C [28]: 35.1%

CC(=O)OC12COC1CC(O)C1(C)C(=O)C(O)C3=C(C)C(OC(=O)C(O)C(NC(=O)OC(C)(C)C)c4ccccc4)CC(O)(C(OC(=O)c4ccccc4)C21)C3(C)C (configuration not stated) + C#Cc1c(F)ccc2cc(O)cc(-c3ncc4c(N5CC6CCC(C5)N6)nc(OCC56CCCN5CC(F)C6)nc4c3F)c12
IC50 [1]: > 10000 nM
IC50 [2]: < 31.6 nM
IC50 [3]: < 31.6 nM
IC50 [4]: < 31.6 nM
IC50 (curve of first compound, second compound 3.16 µM): < 31.6 nM
IC50 (curve of first compound, second compound 10 µM): < 31.6 nM
viability, T/C [5]: 62.9%
viability, T/C [6]: 54.2%
viability, T/C [7]: 55%
viability, T/C [8]: 37.4%
viability, T/C [9]: 55.3%
viability, T/C [10]: 71.7%
viability, T/C [11]: 54.4%
viability, T/C [12]: 52.1%
viability, T/C [13]: 42.2%
viability, T/C [14]: 40.9%
viability, T/C [15]: 52.8%
viability, T/C [16]: 56.9%
viability, T/C [17]: 45.7%
viability, T/C [18]: 43.1%
viability, T/C [19]: 30.8%
viability, T/C [20]: 40.6%
viability, T/C [21]: 39.9%
viability, T/C [22]: 43.6%
viability, T/C [23]: 37.8%
viability, T/C [24]: 36.4%
viability, T/C [25]: 36.5%
viability, T/C [26]: 32.3%
viability, T/C [27]: 34.2%
viability, T/C [28]: 29%
viability, T/C (second compound 3.16 µM, first compound 0.0316 µM): 37.1%
viability, T/C (second compound 3.16 µM, first compound 0.1 µM): 26.4%
viability, T/C (second compound 3.16 µM, first compound 0.316 µM): 23.6%
viability, T/C (second compound 3.16 µM, first compound 1 µM): 30.3%
viability, T/C (second compound 3.16 µM, first compound 3.16 µM): 30.7%
viability, T/C (second compound 3.16 µM, first compound 10 µM): 23.2%
viability, T/C (second compound 10 µM, first compound 0.0316 µM): 30.2%
viability, T/C (second compound 10 µM, first compound 0.1 µM): 26.5%
viability, T/C (second compound 10 µM, first compound 0.316 µM): 23.4%
viability, T/C (second compound 10 µM, first compound 1 µM): 25.6%
viability, T/C (second compound 10 µM, first compound 3.16 µM): 28.6%
viability, T/C (second compound 10 µM, first compound 10 µM): 28.2%

CCc1c2c(nc3ccc(O)cc13)-c1cc3c(c(=O)n1C2)COC(=O)[C@]3(O)CC
viability, T/C (compound 0.003 µM): 97% [middle of 4 runs]
viability, T/C (compound 0.00949 µM): 76% [middle of 4 runs]
viability, T/C (compound 0.03 µM): 49% [middle of 4 runs]
viability, T/C (compound 0.0949 µM): 24.7% [middle of 4 runs]
viability, T/C (compound 0.3 µM): 12.9% [middle of 4 runs]
IC50 (curve of compound): 30.9 nM [middle of 4 runs]

CC(Nc1ccc2c(c1)OCCn1cc(N3C(=O)OCC3C(F)F)nc1-2)C(N)=O (configuration not stated) + CCn1c(-c2cccnc2C(C)OC)c2c3cc(ccc31)N1CCOC(CC(NC(=O)C(C(C)C)N(C)C(=O)C3(F)CCN(C(=O)C#CC(C)(C)N(C)C)CC3)C(=O)N3CCCC(N3)C(=O)OCC(C)(C)C2)C1
IC50 (curve of first compound, second compound 0.000949 µM): 918 nM
IC50 (curve of first compound, second compound 0.003 µM): 1110 nM
IC50 (curve of first compound, second compound 0.00949 µM): 1050 nM
IC50 (curve of first compound, second compound 0.03 µM): 963 nM
IC50 (curve of first compound, second compound 0.0949 µM): 872 nM
IC50 (curve of first compound, second compound 0.3 µM): 329 nM
viability, T/C (second compound 0.000949 µM, first compound 0.0316 µM): 108%
viability, T/C (second compound 0.000949 µM, first compound 0.1 µM): 81.6%
viability, T/C (second compound 0.000949 µM, first compound 0.316 µM): 54.7%
viability, T/C (second compound 0.000949 µM, first compound 1 µM): 55%
viability, T/C (second compound 0.000949 µM, first compound 3.16 µM): 36.5%
viability, T/C (second compound 0.000949 µM, first compound 10 µM): 17.4%
viability, T/C (second compound 0.003 µM, first compound 0.0316 µM): 91.4%
viability, T/C (second compound 0.003 µM, first compound 0.1 µM): 79.4%
viability, T/C (second compound 0.003 µM, first compound 0.316 µM): 64.8%
viability, T/C (second compound 0.003 µM, first compound 1 µM): 51.2%
viability, T/C (second compound 0.003 µM, first compound 3.16 µM): 37.7%
viability, T/C (second compound 0.003 µM, first compound 10 µM): 18.1%
viability, T/C (second compound 0.00949 µM, first compound 0.0316 µM): 101%
viability, T/C (second compound 0.00949 µM, first compound 0.1 µM): 79.8%
viability, T/C (second compound 0.00949 µM, first compound 0.316 µM): 70%
viability, T/C (second compound 0.00949 µM, first compound 1 µM): 54%
viability, T/C (second compound 0.00949 µM, first compound 3.16 µM): 29.9%
viability, T/C (second compound 0.00949 µM, first compound 10 µM): 20.8%
viability, T/C (second compound 0.03 µM, first compound 0.0316 µM): 85.4%
viability, T/C (second compound 0.03 µM, first compound 0.1 µM): 83%
viability, T/C (second compound 0.03 µM, first compound 0.316 µM): 68.8%
viability, T/C (second compound 0.03 µM, first compound 1 µM): 52.3%
viability, T/C (second compound 0.03 µM, first compound 3.16 µM): 26.3%
viability, T/C (second compound 0.03 µM, first compound 10 µM): 22.9%
viability, T/C (second compound 0.0949 µM, first compound 0.0316 µM): 88.8%
viability, T/C (second compound 0.0949 µM, first compound 0.1 µM): 77.9%
viability, T/C (second compound 0.0949 µM, first compound 0.316 µM): 69.9%
viability, T/C (second compound 0.0949 µM, first compound 1 µM): 48.6%
viability, T/C (second compound 0.0949 µM, first compound 3.16 µM): 25.5%
viability, T/C (second compound 0.0949 µM, first compound 10 µM): 17.7%
viability, T/C (second compound 0.3 µM, first compound 0.0316 µM): 77.5%
viability, T/C (second compound 0.3 µM, first compound 0.1 µM): 67.5%
viability, T/C (second compound 0.3 µM, first compound 0.316 µM): 50.4%
viability, T/C (second compound 0.3 µM, first compound 1 µM): 33.1%
viability, T/C (second compound 0.3 µM, first compound 3.16 µM): 22.7%
viability, T/C (second compound 0.3 µM, first compound 10 µM): 16.2%

Reference: PubChem BioAssay AID2060910 (Molecular Pharmacology Branch, DTP, NCI, 2025)
